Structures can show the parent of a compound that is named as a salt.
Each molecule was assayed against T1, 11β-HSD1 (Homo sapiens, UniProt P28845) (assay: 11β-HSD1 inhibition test (human liver microsome, HTRF cortisol detection)). Details: human liver microsome as enzyme source; cortisone 100 nM; 20° C., 80 minutes; generated cortisol quantified by HTRF.
T1 construct: human liver microsome (enzyme source, Tissue Transformation Technologies); tissue Tissue Transformation Technologies; host or cells: human liver microsomes
Type: biochemical
Description: Test Example [11β-HSD1 Inhibition Test]
Test Compounds were Evaluated as Follows.
11β-HSD1 enzyme reaction was performed in a reaction solution of 100 μl total volume using 96-well polypropylene microplates. The reaction solution was prepared in 30 mM Tris-HCl (pH 7.4)/1 mM EDTA buffer to contain NADPH at a final concentration of 100 μM, G6P at a final concentration of 1 mM, human liver microsome (enzyme source, Tissue Transformation Technologies) at a final concentration of 0.8 μg/ml and 10 μl of a test compound dissolved in DMSO. The enzyme reaction was initiated by addition of cortisone at a final concentration of 100 nM. After incubation at 20° C. for 80 minutes, 10 μl of 1 mM 18β glycyrrhetinic acid, which is a non-specific inhibitor, was added to stop the reaction. Next, the amount of generated cortisol was quantified with a detection kit (Sceti Medical Labo K.K., Japan) according to the HTRF (Homogeneous Time-Resolved Fluorescence) method. This system detects fluorescence resonance energy transfer between europium-labeled anti-cortisol antibody and XL665-labeled cortisol. Upon addition of unlabeled cortisol, binding signals will be attenuated due to competitive reaction. Based on this principle, the amount of cortisol generated by the enzyme reaction was evaluated using a standard curve obtained from samples with known concentrations of cortisol included in the kit. The HTRF reaction was performed in 96-well half area microplates as follows: to 30 μl enzyme reaction solution, an anti-cortisol antibody solution (15 μl) and an XL665-labeled cortisol solution (15 μl) included in the kit were added, and the plates were vortexed at room temperature for 1 hour and further allowed to stand at 20° C. for 1 hour. 40 μl of this reaction solution was transferred to 384-well microplates and measured for its fluorescence. 18β Glycyrrhetinic acid was added to wells before initiation of the enzyme reaction and the amount of cortisol generated in these wells was used as a background level. Test compounds were evaluated using serial dilutions at a common ratio of 3 to calculate their IC50 values, assuming that the amount of cortisol generated in wells containing no test compound was set to 100% enzyme activity.

T1 sequence (P28845 whole entry): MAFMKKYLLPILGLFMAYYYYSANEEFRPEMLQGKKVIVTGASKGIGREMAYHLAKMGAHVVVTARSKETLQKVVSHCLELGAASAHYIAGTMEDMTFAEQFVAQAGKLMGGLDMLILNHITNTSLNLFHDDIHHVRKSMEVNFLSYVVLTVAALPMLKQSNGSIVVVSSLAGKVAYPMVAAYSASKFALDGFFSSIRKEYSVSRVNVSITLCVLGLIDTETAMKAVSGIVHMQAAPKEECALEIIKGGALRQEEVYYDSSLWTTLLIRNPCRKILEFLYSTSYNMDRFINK

IC50 [nM]	Compound
0.7	O=C(N[C@H]1C2CC3CC1C[C@](O)(C3)C2)N1CCCc2ccccc21 [Compound A-1, N-[E-1-hydroxyadamantan-4-yl]-3,4-dihydroquinoline-1(2H)-carboxamide]
0.6	NC(=O)[C@]12CC3CC(C1)[C@@H](NC(=O)N1CCOc4ccccc41)C(C3)C2 [Compound 37b, N-[E-5-carbamoyladamantan-2-yl]-2,3-dihydro-4H-1,4-benzoxazine-4-carboxamide]
0.9	O=C(OC1C2CC3CC1CC(O)(C3)C2)N1CCCc2ccccc21 (stereo not shown) [Compound 18b, E-5-hydroxyadamantan-2-yl 3,4-dihydroquinoline-1(2H)-carboxylate]
9.5	O=C(OC1C2CC3CC1CC(O)(C3)C2)N1CCOc2ccc(F)cc21 (stereo not shown) [Compound 44b, E-5-hydroxyadamantan-2-yl 6-fluoro-2,3-dihydro-4H-1,4-benzoxazine-4-carboxylate]
1.5	O=C(NC1C2CC3CC(C2)CC1C3)N1CCCc2ccccc21 (stereo not shown) [Compound A-5, N-adamantan-2-yl-3,4-dihydroquinoline-1(2H)-carboxamide]
3.2	Cc1ccc2c(c1)N(C(=O)OC1C3CC4CC1CC(O)(C4)C3)CCO2 (stereo not shown) [Compound 43b, E-5-hydroxyadamantan-2-yl 6-methyl-2,3-dihydro-4H-1,4-benzoxazine-4-carboxylate]
9.6	CN(C(=O)N1CCCc2ccccc21)[C@H]1C2CC3CC1C[C@](O)(C3)C2 [Compound A-7, N-[E-1-hydroxyadamantan-4-Y^1]-N-methyl-3,4-dihydroquinoline-1(2H)-carboxamide]
8.3	O=C(N[C@H]1C2CC3CC1C[C@](O)(C3)C2)N1CCc2ccccc21 [Compound A-6, N—[E-1-hydroxyadamantan-4-yl]-2,3-dihydro-1H-indole-1-carboxamide]
17.5	O=C(NC1C2CC3CC1CC(C(=O)O)(C3)C2)N1CCCc2ccccc21 (stereo not shown) [Compound 10b, E-4-[(3,4-dihydroquinolin-1(2H)-ylcarbonyl)amino]adamantane-1-carboxylic acid]

Second part, the molecule before the results:

Compound	IC50 [nM]
Cc1ccc2c(c1)N(C(=O)N[C@H]1C3CC4CC1C[C@](O)(C4)C3)CCO2 [Compound 17, N-(E-1-hydroxyadamantan-4-yl)-6-methyl-2,3-dihydro-4H-1,4-benzoxazine 4-carboxamide]	0.8
O=C(N[C@H]1C2CC3CC1C[C@](O)(C3)C2)N1CCOc2cc(F)ccc21 [Compound 24, 7-fluoro-N-(E-5-hydroxyadamantan-2-yl)-2,3-dihydro-4H-1,4-benzoxazine-4-carboxamide]	1.1
CS(=O)(=O)[C@]12CC3CC(C1)[C@@H](NC(=O)N1CCOc4ccccc41)C(C3)C2 [Compound 41, N-(E-1-methylsulfonyladamantan-4-yl)-2,3-dihydro-4H-1,4-benzoxazine-4-carboxamide]	34.7
O=C(N[C@H]1C2CC3CC1C[C@](O)(C3)C2)N1CCSc2ccccc21 [Compound 27, N-(E-5-hydroxyadamantan-2-yl)-2,3-dihydro-4H-1,4-benzothiazine-4-carboxamide]	0.7
N#Cc1ccc2c(c1)CCCN2C(=O)N[C@H]1C2CC3CC1C[C@](O)(C3)C2 [Compound 7, 6-cyano-N-(E-1-hydroxyadamantan-4-yl)-3,4-dihydroquinoline-1(2H)-carboxamide]	2.8
CO[C@]12CC3CC(C1)[C@@H](NC(=O)N1CCCc4ccccc41)C(C3)C2 [Compound 8, N-(E-1-methoxyadamantan-4-yl)-3,4-dihydroquinoline-1(2H)-carboxamide]	0.9
Cc1ccc2c(c1)N(C(=O)N[C@H]1C3CC4CC1C[C@](C(N)=O)(C4)C3)CCO2 [Compound 39, N-(E-5-carbamoyladamantan-2-yl)-6-methyl-2,3-dihydro-4H-1,4-benzoxazine-4-carboxamide]	0.6
CC1(C)CCN(C(=O)N[C@H]2C3CC4CC2C[C@](O)(C4)C3)c2ccccc21 [Compound 14, N-(E-1-hydroxyadamantan-4-yl)-4,4-dimethyl-3,4-dihydroquinoline-1(2H)-carboxamide]	2
O=C(N[C@H]1C2CC3CC1C[C@](O)(C3)C2)N1CCOc2ccc(C(F)(F)F)cc21 [Compound 26, N-(E-5-hydroxyadamantan-2-yl)-6-(trifluoromethyl)-2,3-dihydro-4H-1,4-benzoxazine-4-carboxamide]	3.4
Cc1ccc2c(c1)OCCN2C(=O)N[C@H]1C2CC3CC1C[C@](O)(C3)C2 [Compound 23, N-(E-5-hydroxyadamantan-2-yl)-7-methyl-2,3-dihydro-4H-1,4-benzoxazine-4-carboxamide]	1.1
O=C(N[C@H]1C2CC3CC1C[C@](O)(C3)C2)N1CCNc2ccccc21 [Compound 32, N-(E-5-hydroxyadamantan-2-yl)-3,4-dihydroquinoxaline-1(2H)-carboxamide hydrochloride]	1.4
O=C(N[C@H]1C2CC3CC1C[C@](O)(C3)C2)N1CCCCc2ccccc21 [Compound 13, N-(E-1-hydroxyadamantan-4-yl)-2,3,4,5-tetrahydro-1H-1-benzoazepine-1-carboxamide]	1.2
COC(=O)c1ccc2c(c1)N(C(=O)N[C@H]1C3CC4CC1C[C@](O)(C4)C3)CCO2 [Compound 20, methyl 4-[(E-5-hydroxyadamantan-2-yl)carbamoyl]-3,4-dihydro-2H-1,4-benzoxazine-6-carboxylate]	6.7

Source: patent US8222417B2, “Compound having 11β-HSD1 inhibitory activity” (Taisho Pharmaceutical Co., Ltd, priority 2007, dated 2012)
